According to US20120220560A1, “STEROID TETROL SOLID STATE FORMS” (priority 2010, published 2012):

Assays:
[1] = test system: 8 week old db/db diabetic mice; test: Hyperinsulinemic-euglycemic clamp, glucose lowering in db/db diabetic mice; format: in vivo; conditions: for glucose uptake in white vastus muscle / augmenting muscle glucose uptake in the gastrocnemius muscle: 14C-2-deoxyglucose during clamp; for glucose uptake in white vastus muscle: non oxidative muscle group; for augmenting muscle glucose uptake in the gastrocnemius muscle: p<0.05; for glucose infusion rate compared to the vehicle control: db/db mice, po bid 13 days, qd day 14, clamp on day 14, insulin 10 mU/kg/min
Method: Glucose lowering in 8 week old db/db diabetic mice: The hyperinsulinemic-euglycemic clamp protocol was conducted to measure insulin sensitivity in vivo. In this procedure, insulin was administered to raise the insulin concentration while glucose was infused to maintain euglycemia or a fixed, normal blood glucose level (about 180 mg/dL). […] The objective of this protocol was to investigate characterize the capacity of 17α-ethynylandrost-5-ene-3β,7β,17β-triol and androst-5-ene-3β,7β,16α,17β-tetrol to ameliorate systemic insulin resistance and improve whole body glucose disposal in the hyperinsulinemic-euglycemic clamp model. The degree of skeletal muscle and hepatic insulin sensitivity and tissue specific glucose uptake were also assessed. The animals were dosed daily by oral gavage for 14 days. On Day 10 of treatment catheters were implanted in the carotid artery and jugular vein. On the day of the clamp (day 14) the compound was administered at 7:30 am.
Body weight and glucose concentration were assessed on day 0, 7 and day 14 of treatment. On day 14 a euglycemic-hyperinsulinemic clamp was performed. Food was removed at 7:30 am and at 10:30 a primed continuous infusion of [3-^3H]-glucose (0.05 μCi/min) was administered. A baseline blood sample was taken at 12:50 (−10 min) and at 1:00 (0 min) a euglycemic-hyperinsulinemic clamp was initiated by administering 10 mU/kg/min of insulin. Glucose was infused at a variable rate to clamp the glucose concentration at about 180 mg/dl. A bolus of [^14C]-2deoxyglucose was given at the end of the study to assess tissue specific glucose uptake. Plasma ^14C 2-deoxyglucose was assessed at 122, 125, 130, 135, 145 min. The animals were then anesthetized with an intravenous infusion of sodium pentobarbital and selected tissues were removed, immediately frozen in liquid nitrogen and stored at −70° C. until analysis.
Analysis was conducted as follows. Plasma samples were deproteinized with Ba(OH)2 (0.3 N) and ZnSO4 (0.3 N), dried and radioactivity was assessed on scintillation counter (Packard TRICARB 2900 TR, Meriden, Conn.). Frozen tissue samples were homogenized in 0.5% perchloric acid, centrifuged and neutralized. One supernatant was directly counted to determine radioactivity from both [14C] DG and DGP. A second aliquot was treated with Ba(OH)2 and ZnSO4 to remove ^14C DGP and any tracer incorporated into glycogen and then counted to determine radioactivity from free [^14C]DG(2). [^14C]DGP was calculated as the difference between the two aliquots. The accumulation of [^14C]DGP was normalized to tissue weight and tracer bolus. Rg, an index of tissue specific glucose uptake was calculated as previously described (E. W. Kraegen et al., Am. J. Physiol., 248: E353-E362 (1985)). Whole body glucose turnover was calculated as the ratio of the ^3H glucose infusion rate (dpm/kg/min) and arterial plasma glucose specific activity (dpm/mg). Endogenous glucose production was calculated as the difference between the whole body glucose turnover and the exogenous glucose infusion rate (R. N. Bergman et al., Endocr. Rev., 6:45-86, (1985)).

[2] = test system: male Wistar rats, DNBS challenge; test: DNBS-induced distal colitis, animal model for inflammatory bowel disease; format: in vivo; conditions: sc once a day for 6 days, 0.2 or 2.0 mg/animal/day, 25-30% decrease considered significant
Method: The capacity of androst-5-ene-3β,7β,16α,17β-tetrol (3β-tetrol) to limit or inhibit inflammation or symptoms of inflammation is shown using an animal model for inflammatory bowel disease using the following protocol.
Groups of 3 male Wistar rats (180±20 grams) fasted for 24 hours before 2,4-dinitrobenzene sulfonic acid (DNBS) or saline challenge are used. Distal colitis is induced by intra-colonic instillation of 0.5 mL of an ethanolic solution of DNBS (30 mg in 0.5 mL of a 30% ethanol in saline solution) after which 2 mL of air was injected through the cannula to ensure that the solution remained in the colon. The volume used was 0.1 mL per injection of 2 and 20 mg/mL of compound such as androst-5-ene-3β,7β,17β-triol or 3β-tetrol in a liquid formulation, which was administered by subcutaneous injection once a day for 6 days (0.2 mg/animal/day or 2.0 mg/animal/day). The formulation contains […] of compound. Concentrations of 2 mg/mL and 20 mg/mL are obtained by […] with vehicle that lacked compound.
The first dose is given 30 minutes after DNBS challenge. […] The presence of diarrhea is recorded daily by examining the anal area. […] Before removal of the colon, signs of adhesion between the colon and other organs are recorded. […]

MG-63 cells = test: Reversal of adverse effects of dexamethasone in MG-63 osteoblasts (incl. osteoprotegerin synthesis); format: cell-based, human
Excerpt: (§1) The capacity of 5-androstene-3β,7β,17β-triol, androst-5-ene-3β,7β,16α,17β-tetrol (3β-tetrol) and other compounds to reverse adverse effects of glucocorticoids in bone growth was shown in the human MG-63 osteosarcoma cell line. MG-63 cells are osteoblasts, which are cells that mediate bone growth. This cell line has been used extensively to study bone biology and to characterize the biological activity of compounds for treatment of bone loss conditions (e.g., B. D. Boyan et al., J. Biol. Chem., 264(20):11879-11886 (1989); L. C. Hofbauer et al., Endocrinology, 140(10):4382-4389 (1999)). Adverse toxicities associated with elevated glucocorticoid levels include a […] in the production of IL-6 and IL-8 by osteoblasts, including the MG-63 cell line, and an increase in the expression of the 11β-hydroxysteroid dehydrogenase type 1 enzyme (11β-HSD). Increased 11β-hydroxysteroid dehydrogenase type 1 enzyme results in increased levels of endogenous glucocorticoid activity by converting endogenous cortisone to the active cortisol, which inhibits bone growth. The 11β-HSD enzyme is expressed in liver, adipose tissue, brain and bone tissues. Cortisol generated by 11β-HSD-1 contributes to osteoporosis, insulin resistance, type 2 diabetes, dyslipidemia, obesity, central nervous system disorders such as stroke, neuron death, depression and Parkinson Disease. […]

androgen receptor = target: T1, androgen receptor (Homo sapiens, UniProt P10275); test: Interaction with androgen receptor; format: binding
T1 sequence (P10275 1-920): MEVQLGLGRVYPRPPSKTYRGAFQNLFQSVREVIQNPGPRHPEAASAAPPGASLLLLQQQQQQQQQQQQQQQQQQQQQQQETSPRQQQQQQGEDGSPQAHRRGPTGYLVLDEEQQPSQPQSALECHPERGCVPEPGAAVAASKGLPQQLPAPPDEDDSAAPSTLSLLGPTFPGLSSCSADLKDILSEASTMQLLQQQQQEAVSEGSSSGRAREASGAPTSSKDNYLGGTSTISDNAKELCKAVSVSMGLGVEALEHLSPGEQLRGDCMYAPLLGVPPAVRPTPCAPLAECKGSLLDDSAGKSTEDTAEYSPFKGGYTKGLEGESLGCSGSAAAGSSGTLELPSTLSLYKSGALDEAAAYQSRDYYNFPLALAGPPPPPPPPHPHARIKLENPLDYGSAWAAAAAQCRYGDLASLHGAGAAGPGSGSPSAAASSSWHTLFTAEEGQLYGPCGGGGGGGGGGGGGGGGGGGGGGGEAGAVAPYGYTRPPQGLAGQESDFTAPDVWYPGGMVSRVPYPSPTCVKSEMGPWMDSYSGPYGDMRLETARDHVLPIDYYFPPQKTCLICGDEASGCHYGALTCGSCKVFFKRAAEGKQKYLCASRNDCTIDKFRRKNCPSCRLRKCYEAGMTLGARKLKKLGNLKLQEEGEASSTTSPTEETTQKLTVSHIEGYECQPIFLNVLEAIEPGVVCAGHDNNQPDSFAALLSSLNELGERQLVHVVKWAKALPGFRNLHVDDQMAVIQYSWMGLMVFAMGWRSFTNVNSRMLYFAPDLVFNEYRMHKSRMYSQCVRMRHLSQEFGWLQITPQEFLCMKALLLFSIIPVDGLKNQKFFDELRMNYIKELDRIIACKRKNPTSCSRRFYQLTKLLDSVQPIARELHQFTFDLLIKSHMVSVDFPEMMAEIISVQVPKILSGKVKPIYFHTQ

estrogen receptor-α = estrogen receptor-α (Homo sapiens, UniProt P03372); test: Interaction with estrogen receptor-α; format: binding
estrogen receptor-β = estrogen receptor-β (Homo sapiens, UniProt Q92731); test: Interaction with estrogen receptor-β; format: binding
IL-6 from MG-63 cells = test: Inhibition of IL-6 from MG-63 cells; format: cell-based; conditions: Homo sapiens, pilot studies
Excerpt: as §1

osteoprotegerin = test: Osteoprotegerin levels in dexamethasone-treated mice; format: in vivo; conditions: mice treated with vehicle and dexamethasone at 10 μg/day, daily for 23 days (positive control group)
Method: Osteoprotegerin levels in mice that are treated with vehicle and dexamethasone at 10 μg/day (positive control group) typically show 3.3 pMol/L osteoprotegerin, […]

Chain of estrogen receptor-α (P03372 whole entry): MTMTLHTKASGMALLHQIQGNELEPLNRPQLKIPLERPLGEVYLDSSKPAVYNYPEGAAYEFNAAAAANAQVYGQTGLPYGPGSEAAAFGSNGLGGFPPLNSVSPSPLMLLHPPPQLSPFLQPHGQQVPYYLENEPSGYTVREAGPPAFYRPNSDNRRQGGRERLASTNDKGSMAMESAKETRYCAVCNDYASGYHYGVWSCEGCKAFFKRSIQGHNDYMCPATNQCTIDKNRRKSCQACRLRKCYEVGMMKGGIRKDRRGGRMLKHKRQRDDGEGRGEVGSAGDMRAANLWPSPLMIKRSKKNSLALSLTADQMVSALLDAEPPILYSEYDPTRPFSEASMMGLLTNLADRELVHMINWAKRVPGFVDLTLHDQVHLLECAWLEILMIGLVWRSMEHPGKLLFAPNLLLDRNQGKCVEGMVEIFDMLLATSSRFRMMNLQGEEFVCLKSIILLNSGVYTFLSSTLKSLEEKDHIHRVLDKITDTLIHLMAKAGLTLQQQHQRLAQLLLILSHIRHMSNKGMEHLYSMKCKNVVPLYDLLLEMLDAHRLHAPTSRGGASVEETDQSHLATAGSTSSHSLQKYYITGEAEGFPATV
Chain of estrogen receptor-β (Q92731 whole entry, species assumed): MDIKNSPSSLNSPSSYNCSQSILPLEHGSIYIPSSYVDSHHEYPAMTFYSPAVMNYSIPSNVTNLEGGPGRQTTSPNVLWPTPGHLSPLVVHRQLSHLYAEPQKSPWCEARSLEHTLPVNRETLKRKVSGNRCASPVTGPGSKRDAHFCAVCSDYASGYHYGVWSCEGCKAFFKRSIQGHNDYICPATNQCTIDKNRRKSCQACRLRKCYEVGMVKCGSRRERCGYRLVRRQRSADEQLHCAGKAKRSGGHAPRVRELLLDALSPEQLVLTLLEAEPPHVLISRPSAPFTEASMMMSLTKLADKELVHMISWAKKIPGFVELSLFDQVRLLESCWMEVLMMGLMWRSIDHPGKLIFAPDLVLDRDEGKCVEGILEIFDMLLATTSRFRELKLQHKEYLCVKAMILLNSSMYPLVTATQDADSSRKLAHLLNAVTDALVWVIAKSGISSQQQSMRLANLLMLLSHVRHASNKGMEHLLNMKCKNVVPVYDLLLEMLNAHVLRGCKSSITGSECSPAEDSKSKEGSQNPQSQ

## C[C@]12CC[C@H]3[C@@H]([C@@H](O)C=C4C[C@@H](O)CC[C@@]43C)[C@@H]1C[C@@H](O)[C@@H]2O [Form 3β-tetrol, androst-5-ene-3β,7β,16α,17β-tetrol]
[1]
  glucose uptake in white vastus muscle: differences were not detected except between androst-5-ene-3β,7β,16α,17β-tetrol and rosiglitazone
  augmenting muscle glucose uptake in the gastrocnemius muscle: more effective
  glucose infusion rate compared to the vehicle control: increased
[2]
  decrease in net colon-to-body weight ratio: 25-35%
MG-63 cells; MG-63 cells, 30 nM dexamethasone
  concentration giving normal osteoprotegerin levels: 0.1 µM
MG-63 cells; in the presence of 30 nM dexamethasone
  reversal of the decrease in osteoprotegerin synthesis by MG-63 cells: completely or partially reversed
Androgen receptor
  interaction with androgen receptor: does not interact
Estrogen receptor-α
  interaction with estrogen receptor-α: does not interact
Estrogen receptor-β
  interaction with estrogen receptor-β: does not interact

## CN(CCOc1ccc(CC2SC(=O)NC2=O)cc1)c1ccccn1.O=C(O)/C=C\C(=O)O (stereo not drawn) [rosiglitazone, rosiglitazone maleate, reference compound]
[1]
  glucose uptake in white vastus muscle: differences were not detected except between androst-5-ene-3β,7β,16α,17β-tetrol and rosiglitazone
  augmenting muscle glucose uptake in the gastrocnemius muscle: more effective

## C#C[C@]1(O)CC[C@H]2[C@@H]3[C@@H](O)C=C4C[C@@H](O)CC[C@]4(C)[C@H]3CC[C@@]21C [17α-ethynylandrost-5-ene-3β,7β,17β-triol, reference compound]
[1]
  glucose infusion rate compared to the vehicle control: increased

## C[C@@H]1C[C@H]2[C@@H]3CCC4=CC(=O)C=C[C@]4(C)[C@@]3(F)[C@@H](O)C[C@]2(C)[C@@]1(O)C(=O)CO [dexamethasone]
IL-6 from MG-63 cells
  IC50: 10 nM
osteoprotegerin
  osteoprotegerin level: 3.3 pmol/L

## C[C@]12CC[C@H]3[C@@H]([C@@H](O)C=C4C[C@@H](O)CC[C@@]43C)[C@@H]1CC[C@@H]2O [androst-5-ene-3β,7β,17β-triol, reference compound]
[2]
  decrease in net colon-to-body weight ratio: 15-20%
